Measurements published in ChEMBL document CHEMBL1201862, “PubChem BioAssay data set” (2004).
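Tested at 5 concentrations; 48 h exposure; 96-well plates; endpoints linearly interpolated, else capped at highest concentration. Abbreviation: GI50, concentration required for 50% inhibition of growth.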 The source made the active and inactive calls. Cut-off read from the data, not from the text of the source: active = GI50 up to about 1.1 µM and inactive = higher.

Key:
Test in all cases: NCI anticancer screen, dose series, 48 h
786-0 = tested on: 786-0
A498 = tested on: A498
A549 = tested on: A549
ACHN = tested on: ACHN
CAKI-1 = tested on: CAKI-1
CCRF-CEM = tested on: CCRF-CEM
COLO 205 = tested on: COLO 205
DLD-1 = tested on: DLD-1
DMS-114 = tested on: DMS-114
DMS-273 = tested on: DMS-273
EKVX = tested on: EKVX
HCC 2998 = tested on: HCC 2998
HCT-116 = tested on: HCT-116
HCT-15 = tested on: HCT-15
HL-60 = tested on: HL-60
HOP-18 = tested on: HOP-18
HOP-62 = tested on: HOP-62
HOP-92 = tested on: HOP-92
HT-29 = tested on: HT-29
IGROV-1 = tested on: IGROV-1
K562 = tested on: K562
KM-20L2 = tested on: KM-20L2
KM12 = tested on: KM12
LOX IMVI = tested on: LOX IMVI
LXFL 529 = tested on: LXFL 529
M14 = tested on: M14
M19-MEL = tested on: M19-MEL
MOLT-4 = tested on: MOLT-4
Malme-3M = tested on: Malme-3M
NCI-H23 = tested on: NCI-H23
NCI-H460 = tested on: NCI-H460
NCI-H522 = tested on: NCI-H522
OVCAR-3 = tested on: OVCAR-3
OVCAR-4 = tested on: OVCAR-4
OVCAR-5 = tested on: OVCAR-5
OVCAR-8 = tested on: OVCAR-8
SF-268 = tested on: SF-268
SF-295 = tested on: SF-295
SF-539 = tested on: SF-539
SK-MEL-28 = tested on: SK-MEL-28
SK-MEL-2 = tested on: SK-MEL-2
SK-MEL-5 = tested on: SK-MEL-5
SK-OV-3 = tested on: SK-OV-3
SN12C = tested on: SN12C
SNB-19 = tested on: SNB-19
SNB-75 = tested on: SNB-75
SNB-78 = tested on: SNB-78
SR = tested on: SR
SW-620 = tested on: SW-620
TK-10 = tested on: TK-10
U-251 = tested on: U-251
UACC-257 = tested on: UACC-257
UACC-62 = tested on: UACC-62
UO-31 = tested on: UO-31
XF498 = tested on: XF498

Measured: GI50

CCC1(N=[N+]=[N-])C(=O)c2ccccc2N(c2ccccc2)C1=O (stereo not given)
> 100 µM: HCT-15
inactive: 786-0 > 100 µM | A498 > 100 µM | A549 > 100 µM | ACHN > 100 µM | CAKI-1 > 100 µM | CCRF-CEM > 100 µM | COLO 205 > 100 µM | DLD-1 > 100 µM | DMS-114 > 100 µM | DMS-273 > 100 µM | EKVX > 100 µM | HCC 2998 > 100 µM | HCT-116 > 100 µM | HL-60 > 100 µM | HOP-18 > 100 µM | HOP-62 > 100 µM | HOP-92 > 100 µM | HT-29 > 100 µM | IGROV-1 > 100 µM | K562 > 100 µM | KM-20L2 > 100 µM | KM12 > 100 µM | LOX IMVI > 100 µM | LXFL 529 > 100 µM | M14 > 100 µM | M19-MEL > 100 µM | MOLT-4 > 100 µM | Malme-3M > 100 µM | NCI-H23 > 100 µM | NCI-H460 > 100 µM | NCI-H522 > 100 µM | OVCAR-3 > 100 µM | OVCAR-4 > 100 µM | OVCAR-5 > 100 µM | OVCAR-8 > 100 µM | SF-268 > 100 µM | SF-295 > 100 µM | SF-539 > 100 µM | SK-MEL-28 > 100 µM | SK-MEL-2 > 100 µM | SK-MEL-5 > 100 µM | SK-OV-3 > 100 µM | SN12C > 100 µM | SNB-19 > 100 µM | SNB-75 > 100 µM | SNB-78 > 100 µM | SR > 100 µM | SW-620 > 100 µM | TK-10 > 100 µM | U-251 > 100 µM | UACC-257 > 100 µM | UACC-62 > 100 µM | UO-31 > 100 µM | XF498 > 100 µM
